Eight compounds from patent US20040097454A1, “Method for modulation of cell phenotype” (University Technology Corporation, priority 1999, published 2004) can be followed below.

Assay [1] relates to putative CRE sequences of adipocyte-specific gene promoters. Nature of the assay: Gel retardation assay of recombinant CREB with putative CRE oligonucleotides. In kind it is binding. The conditions noted are these: twenty base pair double stranded 32P-labeled oligonucleotides. How it is done: Next, the ability of purified, recombinant CREB to bind double stranded oligonucleotide probes of these sequences in gel retardation assays was tested as previously described in Klemm et al., 1998, J. Biol. Chem., 273:917-923. Twenty base pair, double stranded nucleotides, end labeled with y32P-ATP and polynucleotide kinase, were incubated with purified, recombinant 30 CREB protein. The reactions were separated on nondenaturing, 6% polyacrylamide gels and exposed to Kodak X-ARomat film. […] In these experiments, 5 ug of nuclear extract protein prepared from 3T3-L1 fibroblasts was incubated with the indicated, labeled oligonucleotides either in the absence (−) or presence (+) of CREB specific antibody. The reactions were separated on polyacrylamide gels as described above and exposed to film. […] Obviously, CREB may not bind to some of the tested sequences in the context of their native promoter environment or under conditions found within the cell. Alternately, CREB may interact with the putative CRE sites we have tested in the PPARγ2 and CEBP α promoters under different conditions, or perhaps bind to other sequences in these promoters not identified by visual inspection.

Another assay concerns P-CREB/CREB in BASMC. Nature of the assay: Acute CREB phosphorylation in BASMC. In kind it is cell-based, bovine. As to conditions: acute treatment, confluent BASMC serum starved 48 hours. The method, then: A series of experiments was performed to determine the ability of insulin, IGF-1 and ISO to acutely enhance CREB phosphorylation in BASMC. BASMC were grown to confluence, ss for 48 hours, and acutely treated with insulin, IGF-1, or Iso in the concentrations noted in FIG. 12A-12C.

The test system of assay [2] is bovine aorta smooth muscle cells (BASMC). Briefly: BASMC morphology and α SM actin content on PKA inhibition. In kind it is cell-based. An excerpt:
To confirm literature reports of the importance of cAMP for the smooth muscle cell (SMC) phenotype, bovine aorta smooth muscle cells (BASMC) were examined for changes in morphology and migration upon modulation of PKA activity. These cells are from a single vascular bed and harvested from an ingrown strain of cattle. BASMC are an established model of vascular smooth muscle tissue in culture (Cucina et al., 1999, J. Surg. Res., 82:61-66; Frid et al., 1997, Circ. Res., 81:940-952; Frid et al., Arterioscler Throb Vasc Biol 17:1203-1209,1997; Hatzi et al., 1999, Eur. J. Biochem., 260:825-832; Stenmark et al., Chest 114:82S-90S, 1998; Takahashi et al., Circ Res 84:543-550, 1999; Underwood et al., 1998, J. Vasc. Res., 35:449-460), and are useful for assessing vascular smooth muscle cell proliferation, migration and contraction. […] Specifically, H89 results in loss of SMC “spindle shape” representative of differentiated, contractile phenotype.

For assay [3], the system named is CREB-dependent promoter transactivation in BASMC. Briefly: CREB-dependent Gal4-TKluc reporter in BASMC. The conditions noted are these: for CREB-dependent promoter transactivation: insulin 100 nM, glucose 25 mM. Type of assay: cell-based, bovine. How it is done:
Isoproterenol is well documented to act through cAMP, yet no studies defining its impact on CREB transactivation in SMCs have been reported. In the next experiment, the ability of ISO to drive a CREB dependent reporter construct was determined. BASMC were transfected with Gal4-TKluc plasmid containing the Gal4 promoter and a thymidine kinase enhancer upstream of the gene encoding a luciferase reporter. These cells were cotransfected with control plasmid (pUC19), a plasmid encoding the Gal4 protein alone, or plasmids encoding chimeric Gal4 proteins with either wild type CRF-B (pZI-Gal4-TKluc) or Ser 133 mutated CREB (SeYI33). […] Of note, basal PKA mediated CRE reporter transcription is very high in these cells and is blocked by the PKA inhibitor H89.

For another assay, the system named is BASMC migration. Nature of the assay: SMC migration, Boyden chamber. As to conditions: high glucose 25 mM vs 5 mM, 48 h. Type of assay: cell-based, bovine.
In the next assay the test system is CREB in BASMC. Briefly: CREB content and phosphorylation in BASMC exposed to high glucose or high insulin. In kind it is cell-based, bovine. The conditions noted are these: 72 hours exposure. How it is done:
Studies were undertaken in BASMC to examine the impact of high glucose (HG) and/or high insulin (HI) on CREB and ICER content. BASMC were grown to confluence, ss for 24 hours, then treated with the concentrations of insulin and/or glucose.

Another assay deals with ICER in BASMC. Briefly: ICER protein and mRNA content in BASMC exposed to glucose and insulin. Type of assay: cell-based, bovine. The conditions noted are these: for ICER protein content: 72 hour; for ICER mRNA: glucose (5 and 25 mM) and insulin (3 and 100 nM), 72 h. The method, then: Next, BASMCs were exposed to either 3 nM or 100 nM insulin for 72 hours and analyzed for mRNA content of ICER. ICER protein was induced by physiological doses of glucose and insulin. […] BASMC were cultured to 90% confluence and treated with glucose (5 and 25 mM) and insulin ([…]) for 72 h. Total RNA was isolated from these cells using Qiagen's RNeasy kit. RNA samples were fractionated on denaturing 1.2% agarose-formaldehyde gels and transferred to Hybond N+ membrane. ICER IIγ CDNA probe was labeled with thermostable alkaline phosphatase using the AlkPhos-Direct kit from Amersham Lifesciences (Buckinghamshire, England). Hybridization, washing and detection by CDP-Star were performed according to manufacturer's protocol.

Assay [4] deals with NIH 3T3-L1 preadipocyte cell lines. Briefly: Adipocyte differentiation assay, Oil Red O staining of triacylglycerol. In kind it is cell-based. How it is done:
Differentiation assays were performed on cells growing on 8 chamber microscope slides. […] The cells were treated with a differentiation mixture, muristerone, or both. […] Muristerone was added to medium at a final concentration of 10 uM for the entire 10 day differentiation period. After 10 days in culture, the cells were stained with Oil Red 0 to visualize triacylglycerol vesicles as previously described (Klemm et al., 1998, J. Biol. Chem., 273:917-923), and counterstained with hematoxylin to visualize cell morphology. Cells were observed by brightfield microscopy and representative fields, were photographed.

Another assay concerns BASMC. Briefly: Cell cycle phase by fluorescence flow cytometry (Krishan's stain) in BASMC with inducible WT CREB. Type of assay: cell-based, bovine. The conditions noted are these: muristerone-induced expression; 0.1 or 10% serum. The method, then:
BASMC were stably transfected with the muristerone-inducible wild-type CREB (WT CREB) expression vector. They were then exposed to serum at 0.1 or 10% with and with exposure to muristerone to induce CREB expression. FIGS. 8A-8D show control cells on the left and muristerone cells on the right. Cells were incubated with Krishan's stain and subjected to fluorescence flow cytometry to assess proliferative capacity to determine phase in the cell cycle. […] This peak was smaller in the cells incubated in low serum. […] The stably transfected clone served as its own control. Preliminary studies were next undertaken to investigate the impact of adenoviral infection with constitutively active CREB (adVP16 CREB) on CRE driven gene expression, proliferation, and migration.

Procedure for BASMC migration: BASMC were grown to 70% confluence and serum starved for 48 hours. Cells were then treated with 0.1 uM PDGF and assessed for thymidine incorporation (FIG. 10A) and migration (FIG. 10B) as follows. […] Migratory behavior of SMC cells was assessed using a 12 well micro-Boyden chamber apparatus (Transwell Apparatus, Costar, Corning, N.Y.). […] Wells were covered with a Type I collagen-coated PVP-free filter with 8 mm pores (Transwell Apparatus, Costar, Corning, N.Y.). Trypsinized cells were resuspended in serum-free medium containing either chemotactic compounds or vehicle, and plated at a density of 25,000 or 50,000 cells per well in a volume of 100 μL. At the end of the incubation, cells attached to the filter were fixed and stained in Dif Quick (American flospital Supply Corp., McGraw Park, Ill.).

For the compound “Recombinant CREB: purified, recombinant CREB protein”, in [1], the “binding to promoter probes of PEPCK, FABP, FAS, SCD and CEBP genes” value was “able to bind”.
For `CC(C)NCC(O)c1ccc(O)c(O)c1` (centres unmarked) [Iso, Isoproterenol], the P-CREB/CREB content result in the assay on P-CREB/CREB in BASMC was “acutely increases P-CREB/CREB content”.
Turning to `O=S(=O)(NCCNC/C=C/c1ccc(Br)cc1)c1cccc2cnccc12` [H89], the “α SM actin content” value in [2] (0-10 uM, 72 hours) is “decreased α SM actin content”. For the same compound, the cellular morphology entry in [2] (10 uM, 4, 8 and 24 hours, relative to untreated control) is on record as “significant alterations in cellular morphology”. The “basal PKA mediated CRE reporter transcription” value in assay [3] was “blocked”. Also, the “endogenous CREB kinase activity (Gal4-CREB reporter)” value in assay [3] (PKA inhibitor treatment) is “attenuates high endogenous CREB kinase activity”.
`OC[C@H]1OC(O)[C@H](O)[C@@H](O)[C@@H]1O` (some centres unmarked) [glucose]: the “cell migration in Boyden Chamber” value with BASMC migration is recorded as “increased cell migration”. In addition, in the assay on CREB in BASMC, the “CREB phosphorylation (PCREB)” value is listed as “delayed increases in PCREB” and the “change in CREB protein content” value is listed as −32%. Moreover, in the assay with ICER in BASMC, the ICER protein content result was “induced ICER protein” and the “ICER mRNA” value is “increase in ICER mRNA”. For the same compound, the CREB-dependent promoter transactivation entry in assay [3] is “attenuates this activity”.
Take IGF-1: insulin growth factor I: the P-CREB/CREB content entry in the assay on P-CREB/CREB in BASMC is “acutely increases P-CREB/CREB content”.
For the compound insulin: insulin; high insulin (HI), the “triacylglycerol accumulation in VP16-CREB-expressing cells” value in [4] (muristerone induced cells also treated with insulin, versus muristerone alone) is “triacylglycerol accumulation was enhanced”. Moreover, in the assay on CREB in BASMC, the “CREB phosphorylation (PCREB)” value is “increased CREB phosphorylation” and the “change in CREB protein content” value was −24%. In addition, in the assay with ICER in BASMC, the ICER protein content result is “decreased ICER content” and the “ICER mRNA” value was “increase in ICER mRNA”. For the same compound, the P-CREB/CREB content entry in the assay on P-CREB/CREB in BASMC was “acutely increases P-CREB/CREB content”. Also, the “transcriptional activation of CREB in presence of H89” value in assay [3] (PKA inhibited with H89) is “clear dose-dependent transcriptional activation of CREB”. In assay [3], the CREB-dependent promoter transactivation entry was “increases CREB-dependent promoter transactivation”.
`CC(C)CC[C@@H](O)[C@](C)(O)[C@H]1CC[C@@]2(O)C3=CC(=O)[C@]4(O)C[C@@H](O)[C@@H](O)C[C@]4(C)[C@H]3[C@H](O)C[C@]12C` [muristerone, reference compound]: in assay [4] (control cells (pVgRXR, pIND-LacZ), 10 uM muristerone alone, 10 days), the “triacylglycerol accumulation (Oil Red O) in control cells” value was “No triacylglycerol accumulation”.
Turning to “WT CREB: wild-type CREB expressed from muristerone-inducible vector or adenovirus”, in the assay with BASMC, the cell cycle phase result is “cell cycle arrest”.
